From patent US12152038B2, “Vasopressin receptor antagonists and products and methods related thereto” (Neumora Therapeutics, Inc., priority 2017, dated 2024)
pIC50: −log10 of the molar value.

Biological target: T1, human Arginine Vasopressin Receptor V2 (AVPR2) (Homo sapiens, UniProt P30518)
T1 construct: host or cells: 1321N1 (cAMPZen V2 assay ready frozen cells)
Assay: Vasopressin V2 receptor antagonist assay (TR-FRET cAMP, 1321N1 cells)
Type: cell-based
Experimental: The purpose of the assay was to determine the inhibitory effect of synthesized compounds on the Vasopressin receptor 2. The assay was performed in commercially available 1321N1 cells expressing the human Arginine Vasopressin Receptor V2 (AVPR2) (Perkin Elmer #ES-363-CF). Arginine Vasopressin (AVP) evokes an increase in intracellular cAMP in these cells which is measured in a TR-FRET assay using a Europium cAMP tracer and ULight labelled antibody reagents contained in a LANCE Ultra cAMP kit (Perkin Elmer #TRF0263). Increases in cAMP in the assay result in a reduction in TR-FRET as the cAMP produced by the stimulated cells competes with the Eu-cAMP tracer for binding sites on the ULight labelled antibody. Test compounds were assessed for their ability to affect the magnitude of the response to AVP, with antagonists showing a concentration-dependent decrease in the AVP-mediated reduction in TR-FRET signal.
cAMPZen V2 assay ready cells were thawed at 37° C. and resuspended directly from frozen in 9 ml growth medium consisting of DMEM supplemented with 10% v/v fetal bovine serum, 1× non-essential amino acids, and 1 mM sodium pyruvate. Cells were spun at 1000 rpm for 3 minutes and the supernatant was carefully removed and discarded. The pellet was resuspended in 5 ml stimulation buffer and the cell density determined using the Vi-Cell automated cell counter. The cell suspension was diluted to a 0.2×10^6/ml suspension ready for plating. To all wells of a white 384-well Optiplate (Perkin Elmer #6007299) 5 μL of cells in stimulation buffer were dispensed (1,000 cells per well). Stimulation buffer consisted of HBSS (+Ca/+Mg) supplemented with 5 mM HEPES, 0.1% BSA stabiliser and 0.5 mM IBMX.
At the start of each assay day the potency of AVP was assessed and an EC80 concentration determined for subsequent compound profiling. Assays were performed by first an addition of 2.5 μl of control or test compound at 4× final concentration in stimulation buffer followed by 2.5 μl of AVP at 4× final concentration in stimulation buffer. After a 1 hour reaction, detection reagents were added by first an addition of 5 μl EU-cAMP tracer, followed by 5 μl ULight-anti-cAMP both diluted as per the manufacturer's instructions. After a one hour incubation, plates were ready to be read (signals then remained stable for up to 24 hours). Changes in time resolved fluorescence were monitored with excitation via a laser (337 nm) measuring both 615 nm and 665 nm emission wavelengths. […] For compound profiling, test compounds were dispensed by the Labcyte Echo (10-point curve, 1:3 dilutions) in a target 0.1 μl volume then diluted 750-fold in stimulation buffer containing 3% DMSO prior to addition to the cells. At the end of the incubation period, 2.5 μl of AVP in stimulation buffer was added at the previously determined EC80 concentration.
In-plate controls for the assay included a Tolvaptan concentration-response curve as the reference V2 antagonist and an AVP concentration-response curve to confirm the reproducibility of the EC80 used for the compound challenge.

T1 sequence (P30518 whole entry): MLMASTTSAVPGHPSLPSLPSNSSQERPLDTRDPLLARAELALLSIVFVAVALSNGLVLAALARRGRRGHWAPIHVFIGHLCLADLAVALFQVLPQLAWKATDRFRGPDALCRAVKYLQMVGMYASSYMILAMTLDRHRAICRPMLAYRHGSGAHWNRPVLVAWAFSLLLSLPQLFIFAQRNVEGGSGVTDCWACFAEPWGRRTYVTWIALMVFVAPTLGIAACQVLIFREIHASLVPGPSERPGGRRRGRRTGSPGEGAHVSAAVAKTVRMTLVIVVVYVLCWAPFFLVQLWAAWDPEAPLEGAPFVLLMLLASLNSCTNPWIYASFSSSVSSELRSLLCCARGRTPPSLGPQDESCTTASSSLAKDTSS

Structure (SMILES)	pIC50
CC1COc2cc(Cl)ccc2N1C(=O)N1CC2(C1)CN(c1ncccn1)C2 (single isomer, unassigned) [1-83-B, (7-chloro-3-methyl-2,3-dihydro-4H-benzo[b][1,4]oxazin-4-yl)(6-(pyrimidin-2-yl)-2,6-diazaspiro[3.3]heptan-2-yl)methanone]	≤ 6.00
CC1COc2cc(F)ccc2N1C(=O)N1CC2(C1)CN(c1noc3ccccc13)C2 (single isomer, unassigned) [4-3-B]	6.00 to 6.30
CC1COc2cc(Cl)ccc2N1C(=O)N1CC2(C1)CN(c1cccnn1)C2 (single isomer, unassigned) [9-1-A]	≤ 6.00
CC1COc2cc(Cl)ccc2N1C(=O)N1CC2(C1)CN(c1cccnn1)C2 (single isomer, unassigned) [9-1-B]	≤ 6.00
CC1CN(C(=O)N2CC3(C2)CN(c2ccc(F)cn2)C3)c2ccc(Cl)cc2O1 (single isomer, unassigned) [9-3-A]	≤ 6.00
CC1COc2cc(F)ccc2N1C(=O)N1CC2(C1)CN(c1ncc(F)cn1)C2 (single isomer, unassigned) [18-4-B]	≤ 6.00
CC1COc2cc(F)c(F)cc2N1C(=O)N1CC2(C1)CN(c1cccnn1)C2 (single isomer, unassigned) [19-3-B]	≤ 6.00
CC1COc2cc(F)c(F)cc2N1C(=O)N1CC2(C1)CN(c1ccc(F)cn1)C2 (single isomer, unassigned) [19-5-B]	> 7.00
CC1COc2cc(Cl)ccc2N1C(=O)N1CC2(C1)CN(c1cccnc1)C2 (single isomer, unassigned) [20-1-B]	≤ 6.00
Cc1cncc(N2CC3(CN(C(=O)N4c5ccc(F)cc5OCC4C)C3)C2)n1 (single isomer, unassigned) [20-2-A]	≤ 6.00
O=C(N1CC2(C1)CN(c1ncccn1)C2)N1CCOc2cc(Cl)ccc21 [1-4]	≤ 6.00
Cc1cccnc1N1CC2(CN(C(=O)N3CCOc4cc(Cl)ccc43)C2)C1 [1-5]	≤ 6.00
Cc1ccnc(N2CC3(CN(C(=O)N4CCOc5cc(Cl)ccc54)C3)C2)c1 [1-14]	≤ 6.00
COc1ccnc(N2CC3(CN(C(=O)N4CCOc5cc(Cl)ccc54)C3)C2)c1 [1-15]	≤ 6.00
O=C(N1CC2(C1)CN(c1ncccc1F)C2)N1CCc2cc(Cl)ccc21 [1-76]	≤ 6.00
O=C(N1CC2(C1)CN(c1ccccn1)C2)N1CCc2cc(Cl)ccc21 [1-77]	≤ 6.00
O=C(N1CC2(C1)CN(c1cc(F)ccn1)C2)N1CCc2cc(Cl)ccc21 [1-79]	≤ 6.00

Structure (SMILES)	pIC50
O=C(N1CC2(C1)CN(c1cccnn1)C2)N1CCOc2cc(Cl)c(F)cc21 [1-81]	≤ 6.00
O=C(N1CC2(C1)CN(c1noc3ccccc13)C2)N1CCOc2cc(Cl)ccc21 [4-1, (6-(benzo[d]isoxazol-3-yl)-2,6-diazaspiro[3.3]heptan-2-yl)(7-chloro-2,3-dihydro-4H-benzo[b][1,4]oxazin-4-yl)methanone]	≤ 6.00
O=C(N1CC2(C1)CN(c1ncc(F)cn1)C2)N1CCOc2cc(Cl)ccc21 [4-2]	≤ 6.00
CC1COc2cc(F)ccc2N1C(=O)N1CC2(C1)CN(c1noc3ccccc13)C2 (stereo not drawn) [4-3]	≤ 6.00
Cc1nc(N2CC3(CN(C(=O)N4CCOc5cc(Cl)ccc54)C3)C2)ncc1F [6-1, (7-chloro-2,3-dihydro-4H-benzo[b][1,4]oxazin-4-yl)(6-(5-fluoro-4-methylpyrimidin-2-yl)-2,6-diazaspiro[3.3]heptan-2-yl)methanone]	≤ 6.00
O=C(N1CC2(C1)CN(c1ccccn1)C2)N1CCOc2cc(Cl)ccc21 [8-2]	≤ 6.00
O=C(N1CC2(C1)CN(c1cnccn1)C2)N1CCOc2cc(Cl)ccc21 [8-3]	≤ 6.00
O=C(N1CC2(C1)CN(c1ccc(F)cn1)C2)N1CCc2cc(Cl)ccc21 [8-11]	≤ 6.00
O=C(N1CC2(C1)CN(c1cnccn1)C2)N1CCc2cc(Cl)ccc21 [8-14]	≤ 6.00
COc1ccc2c(c1)OCCN2C(=O)N1CC2(C1)CN(c1ccc(F)cn1)C2 [9-2]	≤ 6.00
O=C(N1CC2(C1)CN(c1ccc(F)cn1)C2)N1CCOc2cc(F)c(F)cc21 [9-6]	≤ 6.00
O=C(N1CC2(C1)CN(c1ccc(F)cn1)C2)N1CCC(F)(F)c2cc(Cl)ccc21 [17-1, (6-chloro-4,4-difluoro-3,4-dihydroquinolin-1(2H)-yl)(6-(5-fluoropyridin-2-yl)-2,6-diazaspiro[3.3]heptan-2-yl)methanone]	≤ 6.00
CC1COc2cc(F)ccc2N1C(=O)N1CC2(C1)CN(c1ncccn1)C2 (stereo not drawn) [18-1, (7-fluoro-3-methyl-2,3-dihydro-4H-benzo[b][1,4]oxazin-4-yl)(6-(pyrimidin-2-yl)-2,6-diazaspiro[3.3]heptan-2-yl)methanone]	≤ 6.00
CC1COc2cc(F)c(F)cc2N1C(=O)N1CC2(C1)CN(c1ncccn1)C2 (stereo not drawn) [19-1, (6,7-difluoro-3-methyl-2,3-dihydro-4H-benzo[b][1,4]oxazin-4-yl)(6-(pyrimidin-2-yl)-2,6-diazaspiro[3.3]heptan-2-yl)methanone]	≤ 6.00
CC1COc2cc(F)c(F)cc2N1C(=O)N1CC2(C1)CN(c1cccnn1)C2 (stereo not drawn) [19-3]	≤ 6.00
Cc1cnc(N2CC3(CN(C(=O)N4c5ccc(Cl)cc5OCC4C)C3)C2)nc1 (stereo not drawn) [20-13]	6.30 to 7.00

Biological target: T2, human Oxytocin Receptor (hOTR) (Homo sapiens, UniProt P30559)
T2 construct: host or cells: CHEM-1 (ready-to-assay frozen cells)
T2 sequence (P30559 1-389): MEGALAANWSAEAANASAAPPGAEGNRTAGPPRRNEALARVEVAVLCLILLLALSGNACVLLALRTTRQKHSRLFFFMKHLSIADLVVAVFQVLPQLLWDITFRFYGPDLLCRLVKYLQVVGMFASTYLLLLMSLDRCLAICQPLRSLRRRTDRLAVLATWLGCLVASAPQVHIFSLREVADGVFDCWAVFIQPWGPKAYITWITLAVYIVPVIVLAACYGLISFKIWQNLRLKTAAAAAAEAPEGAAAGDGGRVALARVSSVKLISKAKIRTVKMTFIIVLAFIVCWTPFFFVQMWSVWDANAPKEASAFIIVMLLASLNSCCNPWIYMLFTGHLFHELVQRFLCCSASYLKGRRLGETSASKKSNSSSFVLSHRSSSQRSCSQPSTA
Assay: Oxytocin receptor (OTR) antagonist assay (FLIPR calcium, CHEM-1-hOTR cells)
Type: cell-based
Experimental: This assay was performed in CHEM-1 cells expressing the human Oxytocin Receptor (hOTR) to determine the inhibitory effect of the compounds of the invention on the human Oxytocin receptor. Oxytocin evokes an increase in intracellular calcium in CHEM-1-hOTR cells which is measured in a fluorescence assay on the FLIPR^TETRA using calcium sensitive dyes. Test compounds were assessed for their ability to affect the magnitude of the response to oxytocin, with antagonists showing a concentration-dependent reduction in the oxytocin-mediated fluorescence.
CHEM-1-hOTR ready was used to assay frozen cells (Eurofins #HTS09ORTA) which are supplied with a proprietary Media Component.
Day 1 of the assay: Cells were thawed in a 37° C. water bath and diluted with the supplied Media Component to a final volume of 10 ml. The cell suspension was centrifuged at 1000 rpm for 3 min at room temperature and the supernatant was discarded. The cell pellet was resuspended in Media Component (10.5 ml) and the cells (25 μL) were dispensed into a poly-D-lysine coated black, clear bottomed, 384-well plate. The plates were incubated overnight at 37° C., 5% CO2.
Day 2: At the start of each assay day the potency of oxytocin was assessed and an EC80 concentration was determined for subsequent compound profiling. Assays were performed using a two-step addition protocol on the FLIPR^TETRA; first addition of 5 μl of control or test compound at 10× final in assay buffer with 15 min incubation at 37° C., 5% CO2 followed by 10 μl of oxytocin at 6× final concentration in assay buffer. Changes in fluorescence were monitored for 3 min after both additions on the FLIPR^TETRA using 470-495 nm excitation and 515-575 nm emission wavelengths. The assay buffer consisted of HBSS (+Ca/+Mg) supplemented with 20 mM HEPES, and for the preparation of the oxytocin agonist only, 0.1% w/v bovine serum albumin. The assay was initiated by the removal of growth media from the cells and replaced with 45 μl of Calcium-6 dye (Molecular Devices) prepared at 1× in assay buffer. Cells were loaded with dye for 60-90 min at 37° C., 5% CO2 before initiation of the FLIPR^TETRA protocol. […] For compound profiling, test compounds were first serially diluted in DMSO (10-point curve, 1:3 dilutions) then diluted 33.3-fold in assay buffer prior to addition to the dye loaded cells on the FLIPR^TETRA. At the end of the incubation period 10 μl of oxytocin in assay buffer containing 0.1% BSA was added at the previously determined EC80 concentration.
In-plate controls for the assay included a L-368,899 concentration-response curve as the reference OTR antagonist and an oxytocin concentration-response curve to confirm the reproducibility of the EC80 used for the compound challenge.

Structure (SMILES)	pIC50
CC1COc2cc(Cl)ccc2N1C(=O)N1CC2(C1)CN(c1ncccn1)C2 (single isomer, unassigned) [1-83-B, (7-chloro-3-methyl-2,3-dihydro-4H-benzo[b][1,4]oxazin-4-yl)(6-(pyrimidin-2-yl)-2,6-diazaspiro[3.3]heptan-2-yl)methanone]	6.30 to 7.00
CC1COc2cc(F)ccc2N1C(=O)N1CC2(C1)CN(c1noc3ccccc13)C2 (single isomer, unassigned) [4-3-B]	≤ 6.00
CC1COc2cc(Cl)ccc2N1C(=O)N1CC2(C1)CN(c1cccnn1)C2 (single isomer, unassigned) [9-1-B]	6.30 to 7.00
CC1CN(C(=O)N2CC3(C2)CN(c2ccc(F)cn2)C3)c2ccc(Cl)cc2O1 (single isomer, unassigned) [9-3-A]	6.00 to 6.30
O=C(N1CC2(C1)CN(c1ccc(F)cn1)C2)N1CCOCc2cc(Cl)ccc21 [8-4]	≤ 6.00
O=C(N1CC2(C1)CN(c1ccc(F)cn1)C2)N1CCC(O)c2cc(Cl)ccc21 (stereo not drawn) [13-1, (6-chloro-4-hydroxy-3,4-dihydroquinolin-1(2H)-yl)(6-(5-fluoropyridin-2-yl)-2,6-diazaspiro[3.3]heptan-2-yl)methanone]	≤ 6.00
